In patent US10457637B2, “Benzenesulfonamide derivatives as inverse agonists of retinoid-related orphan receptor gamma (RORγ(T))” (GALDERMA RESEARCH & DEVELOPMENT, priority 2014, dated 2019):

Tests used:
Assay type in all cases: cell-based
hERG = hERG (Homo sapiens (Human), UniProt Q12809); assay: hERG test, patch clamp on CHO-K1 cells; settings: CHO-K1 cells transfected with the hERG gene
From the text: In the table below, the median inhibitory concentrations IC50 for the compounds belonging to formula (I) according to the invention have been given in accordance with the hERG test.
The hERG test makes it possible to study a gene which codes for a protein required for the functioning of heart tissue potassium channels. The patch clamp method on CHO-K1 cells (cells transfected with the hERG gene which has K+ ion activity on the membranes) is used for in vitro prediction of the blocking of hERG (human Ether-a-go-go Related).
The extracellular solution (control) is applied first. The cells (Chinese hamster ovarian cells expressing the Human Ether-a-go-go Related Gene) are stabilized with the extracellular solution for 5 minutes. The cells are incubated for 5 minutes with the molecules from the weakest to the strongest concentration at 0.6% DMSO final.
The result is expressed in the form of an IC50 value in μM.

[1] = target: ROR gamma ligand-binding domain (hRORg) (Homo sapiens (Human), UniProt P51449); assay: GAL4-RORγ transactivation (luciferase reporter, HG5LN HeLa line); settings: 18 hours incubation
Chain of ROR gamma ligand-binding domain (hRORg) (P51449 269-508): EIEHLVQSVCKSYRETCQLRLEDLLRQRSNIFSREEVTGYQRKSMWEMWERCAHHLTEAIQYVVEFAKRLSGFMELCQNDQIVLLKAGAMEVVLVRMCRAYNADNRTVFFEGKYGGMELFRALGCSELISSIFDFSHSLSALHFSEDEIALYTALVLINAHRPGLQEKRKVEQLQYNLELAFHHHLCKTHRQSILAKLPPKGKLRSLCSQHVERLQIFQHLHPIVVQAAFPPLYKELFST
Method in brief: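 HeLa-derived HG5LN cells stably expressing GAL4 DBD fused to human RORγ LBD with GAL4-driven luciferase reporter; inhibition of constitutive activity lowers luminescence.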

[2] = system: IL-17A secretion by CD4+ cells; assay: IL-17A secretion by CD4+ cells (HTRF); settings: 96 h; human CD4+ cells activated with anti-CD3 and anti-CD28, 4 days of incubation; read-out: IC50 hCD4/IL17
Protocol: This model allows measurement of the effect of inhibitors on IL-17A secretion by CD4+ cells. […] The amount of IL-17a secreted is measured by the TR-FRET (kit HTRF® Human Interleukin 17A (Cisbio, #64H17PEC)) technology.
The cells are rapidly thawed, resuspended in their culture medium (RPMI inactivated 10% FCS) supplemented with soluble anti-CD28 antibodies and seeded (100 000 cells/well) in 96-well plates precoated with anti-CD3 antibodies. The cells are then treated with the ranges of inhibitors to be tested (from 1000 nM to 0.05 nM, 0.1% DMSO). […] The IC50 values are calculated from a 4-parameter logistic model using the XLFit software (IDBS).

Chain of hERG (Q12809 whole entry): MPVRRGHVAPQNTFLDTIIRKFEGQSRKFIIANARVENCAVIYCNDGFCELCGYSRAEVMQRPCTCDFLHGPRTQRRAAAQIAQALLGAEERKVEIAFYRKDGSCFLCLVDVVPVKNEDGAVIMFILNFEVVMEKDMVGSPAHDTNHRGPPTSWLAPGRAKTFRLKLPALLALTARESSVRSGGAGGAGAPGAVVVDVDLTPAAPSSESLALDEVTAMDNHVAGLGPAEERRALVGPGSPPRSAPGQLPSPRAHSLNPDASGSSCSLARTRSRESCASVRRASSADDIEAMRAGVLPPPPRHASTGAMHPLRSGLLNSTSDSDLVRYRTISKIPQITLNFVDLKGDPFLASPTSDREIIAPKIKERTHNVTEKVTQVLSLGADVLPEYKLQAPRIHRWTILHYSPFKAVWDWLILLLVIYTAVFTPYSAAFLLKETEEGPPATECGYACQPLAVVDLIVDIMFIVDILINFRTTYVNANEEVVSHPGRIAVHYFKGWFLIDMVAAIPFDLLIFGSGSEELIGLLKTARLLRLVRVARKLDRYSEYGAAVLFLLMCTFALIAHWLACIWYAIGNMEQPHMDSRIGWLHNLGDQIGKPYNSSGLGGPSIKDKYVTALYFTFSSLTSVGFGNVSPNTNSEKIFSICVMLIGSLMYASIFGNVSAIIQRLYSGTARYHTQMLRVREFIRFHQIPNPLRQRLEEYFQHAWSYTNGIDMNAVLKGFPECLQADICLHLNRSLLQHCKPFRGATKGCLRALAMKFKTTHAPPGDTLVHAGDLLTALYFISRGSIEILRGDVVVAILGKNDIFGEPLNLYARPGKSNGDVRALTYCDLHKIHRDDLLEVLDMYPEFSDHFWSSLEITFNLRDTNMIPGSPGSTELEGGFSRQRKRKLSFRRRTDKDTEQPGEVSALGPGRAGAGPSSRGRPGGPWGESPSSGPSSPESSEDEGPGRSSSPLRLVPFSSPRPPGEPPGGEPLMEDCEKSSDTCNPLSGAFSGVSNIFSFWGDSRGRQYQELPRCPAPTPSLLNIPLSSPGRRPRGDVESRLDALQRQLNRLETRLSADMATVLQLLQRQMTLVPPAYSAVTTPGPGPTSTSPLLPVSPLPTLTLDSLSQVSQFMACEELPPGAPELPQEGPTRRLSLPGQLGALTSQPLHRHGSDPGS

SMILES	IC50 [1] [nM]	IC50 [2] [nM]	IC50 (hERG) [nM]	IC50 at 5 min (hERG; human) [nM]
CCc1ccc(N(CC(C)C)S(=O)(=O)c2ccc(OCC3CCOCC3)c(S(C)(=N)=O)c2)cc1 (racemic) [compound 26, N-(4-ethylphenyl)-N-isobutyl-3-methanesulfonoximino-4-(tetrahydropyran-4-ylmethoxy)benzenesulfonamide]	–	< 100	> 30000	–
CCc1ccc(N(CC(C)C)S(=O)(=O)c2ccc(OCC3CCOCC3)c([S@@](C)(=N)=O)c2)cc1 (single isomer, unassigned) [compound 8, N-(4-ethylphenyl)-N-isobutyl-3-methanesulfoximino-4-(tetrahydropyran-4-ylmethoxy)benzenesulfonamide]	–	< 100	> 30000	–
CCc1ccc(N(CC(C)C)S(=O)(=O)c2ccc(N(C)CC3CCOCC3)c(S(C)(=N)=O)c2)cc1 (stereo not drawn) [compound 53, N-(4-ethylphenyl)-N-isobutyl-4-(methyl((tetrahydro-2H-pyran-4-yl)methyl)amino)-3-(S-methylsulfonimidoyl)benzenesulfonamide]	–	< 100	11800	–
CCc1ccc(N(CC(C)C)S(=O)(=O)c2ccc(NCC3(C)CCOCC3)c(S(C)(=N)=O)c2)cc1 (stereo not drawn) [compound 55, N-(4-ethylphenyl)-N-isobutyl-3-(S-methylsulfonimidoyl)-4-(((4-methyltetrahydro-2H-pyran-4-yl)methyl)amino)benzenesulfonamide]	–	< 100	14100	–
CCc1ccc(N(CC(C)C)S(=O)(=O)c2ccc(NCC3(F)CCOCC3)c(S(C)(=N)=O)c2)cc1 (stereo not drawn) [compound 62, N-(4-ethylphenyl)-4-(((4-fluorotetrahydro-2H-pyran-4-yl)methyl)amino)-N-isobutyl-3-(S-methylsulfonimidoyl)benzenesulfonamide]	–	< 100	16400	–
CCc1ccc(N(CC(C)C)S(=O)(=O)c2ccc(OCC3CCOCC3)c([S@](C)(=N)=O)c2)cc1 [compound 7, N-(4-ethylphenyl)-N-isobutyl-3-methanesulfoximino-4-(tetrahydropyran-4-ylmethoxy)benzenesulfonamide]	–	< 100	> 30000	–
CCc1ccc(N(CC(C)C)S(=O)(=O)c2ccc(OCC3CCSCC3)c(S(C)(=N)=O)c2)cc1 (stereo not drawn) [compound 37]	–	–	–	11800

More lines, main results first:

IC50 [1] [nM]	IC50 [2] [nM]	SMILES	IC50 (hERG) [nM]	IC50 at 5 min (hERG; human) [nM]
< 100	< 100	CCc1ccc(N(CC(C)C)S(=O)(=O)c2ccc(NCC3CC(O)C3)c(S(C)(=N)=O)c2)cc1 (stereo not drawn) [compound 61, N-(4-ethylphenyl)-4-(((3-hydroxycyclobutyl)methyl)amino)-N-isobutyl-3-(S-methylsulfonimidoyl)benzenesulfonamide]	25700	–
< 100	–	CCc1ccc(N(CC(C)C)S(=O)(=O)c2ccc(OC[C@H]3[C@@H]4COC[C@@H]43)c(S(C)(=N)=O)c2)cc1 (stereo partly drawn) [compound 35, 4-(((1R,5S,6R)-3-oxabicyclo[3.1.0]hexan-6-yl)methoxy)-N-(4-ethylphenyl)-N-isobutyl-3-(S-methylsulfonimidoyl)benzenesulfonamide]	> 30000	–
< 100	< 100	CCc1ccc(N(CC(C)C)S(=O)(=O)c2ccc(NC[C@@H]3[C@H]4COC[C@@H]34)c(S(C)(=N)=O)c2)cc1 (stereo partly drawn) [compound 91, 4-((((1R,5S,6S)-3-oxabicyclo[3.1.0]hexan-6-yl)methyl)amino)-N-(4-ethylphenyl)-N-isobutyl-3-(S-methylsulfonimidoyl)benzenesulfonamide]	–	–
< 100	< 100	CCc1ccc(N(CC(C)C)S(=O)(=O)c2ccc(OCC3(F)CCOCC3)c(S(C)(=N)=O)c2)cc1 (stereo not drawn) [compound 30, N-(4-ethylphenyl)-4-((4-fluorotetrahydro-2H-pyran-4-yl)methoxy)-N-isobutyl-3-(S-methylsulfonimidoyl)benzenesulfonamide]	–	–
> 1000	> 1000	CCc1ccc(N(CC(C)C)S(=O)(=O)c2ccc(N3CC[C@H](O)C3)c(S(C)(=N)=O)c2)cc1 (stereo partly drawn) [compound 129, N-(4-ethylphenyl)-4-((S)-3-hydroxypyrrolidin-1-yl)-N-isobutyl-3-(S-methylsulfonimidoyl)benzenesulfonamide]	–	–
< 100	< 100	CCc1ccc(N(CC(C)C)S(=O)(=O)c2ccc(NCc3ccncn3)c(S(C)(=N)=O)c2)cc1 (stereo not drawn) [compound 133, N-(4-ethylphenyl)-N-isobutyl-3-(S-methylsulfonimidoyl)-4-((pyrimidin-4-ylmethyl)amino)benzenesulfonamide]	–	–
100 to 1000	> 1000	CCc1ccc(N(CC(C)C)S(=O)(=O)c2ccc(NCC3(OC)CCOCC3)c(S(C)(=N)=O)c2)cc1 (stereo not drawn) [compound 125, N-(4-ethylphenyl)-N-isobutyl-4-(((4-methoxytetrahydro-2H-pyran-4-yl)methyl)amino)-3-(S-methylsulfonimidoyl)benzenesulfonamide]	–	–
< 100	< 100	CCc1ccc(N(CC(C)C)S(=O)(=O)c2ccc(NCc3ccncc3)c(S(C)(=N)=O)c2)cc1 (stereo not drawn) [compound 64, N-(4-ethylphenyl)-N-isobutyl-3-(S-methylsulfonimidoyl)-4-((pyridin-4-ylmethyl)amino)benzenesulfonamide]	–	–
